PMC5486949 (SLAS discovery, 2017)
Structures can show the parent of a compound that is named as a salt. Where two headings read alike, the source gives them in different places. One block for each compound: values may come before it.

How the values were obtained:
[1] = molecular target: ERRα; assay: ERR luciferase reporter gene assay, agonist mode; type: cell-based, human; conditions: for EC50: read-out: ERRα (Agonist) EC50; for AC50: read-out: AC50 ERR ↑
[2] = system: PGC-1α/ERRα; assay: PGC/ERR luciferase reporter gene assay, agonist mode; type: cell-based, human; conditions: Homo sapiens; for AC50: read-out: AC50 PGC-ERR ↑; for EC50: read-out: PGC-1α/ERRα (Agonist) EC50
[3] = system: ERR and PGC/ERR cell lines; assay: Cell viability; conditions: agonist mode, ERR and PGC/ERR lines (Fig. 3A,B)
[4] = system: ERRα; assay: ERR luciferase reporter gene assay, antagonist mode; type: cell-based, human; conditions: for AC50: read-out: AC50 ERR↓; for IC50: read-out: ERRα (Antagonist) IC50
[5] = system: PGC-1α/ERRα; assay: PGC/ERR luciferase reporter gene assay, antagonist mode; type: cell-based, human; conditions: for AC50: read-out: AC50 PGC/ERR ↓; for IC50: read-out: PGC-1α/ERRα (Antagonist) IC50
[6] = system: aryl hydrocarbon receptor (AhR); conditions: cited from earlier work
[7] = system: ERR cell line (HEK293T); assay: Cell viability assay multiplexed with ERR antagonist mode assay; type: cell-based, human; conditions: Homo sapiens, HEK-293T, read-out: ERRα (Viability) IC50
[8] = LOPAC qHTS, dash = inconclusive or no activity
[9] = antagonist mode, 0 = inactive or inconclusive

IC50 ([4]; Homo sapiens): 23.7 µM
SMILES: CC#C[C@]1(O)CC[C@H]2[C@@H]3CCC4=CC(=O)CCC4=C3[C@@H](c3ccc(N(C)C)cc3)C[C@@]21C [Mifepristone]

EC50 [2]: 11.9 µM
SMILES: Nc1ccc(CCNc2ncnc3c2ncn3[C@@H]2O[C@H](CO)[C@@H](O)[C@H]2O)cc1 [N6-2-(4-Aminophenyl)ethyladenosine]

EC50 [2]: 2.98 µM
SMILES: OC[C@H]1O[C@@H](n2cnc3c(NC4CCCC4)ncnc32)[C@H](O)[C@@H]1O [N6-Cyclopentyladenosine]

EC50 [1, 8]: 2.11 µM
SMILES: COc1cccc(-c2cc(=O)c3ccccc3o2)c1N [PD 98,059]

EC50 ([1]; Homo sapiens): 8.41 µM
EC50 [2]: 18.8 µM
SMILES: Oc1cc(O)cc(/C=C/c2ccc(O)c(O)c2)c1 [Piceatannol]
AC50 ([1]; Homo sapiens): 8.32 µM
AC50 [2]: 18.6 µM

EC50 ([1]; Homo sapiens): 3.35 µM
EC50 [2]: 11.9 µM
SMILES: Oc1ccc(/C=C/c2cc(O)cc(O)c2)cc1 [Resveratrol]
AC50 ([1]; Homo sapiens): 3.31 µM
AC50 [2]: 11.7 µM

IC50 ([4]; Homo sapiens): 16.8 µM
SMILES: Cc1nc2sccn2c(=O)c1CCN1CCC(=C(c2ccc(F)cc2)c2ccc(F)cc2)CC1 [Ritanserin]

EC50 ([1]; Homo sapiens): 2.37 µM
EC50 [2]: 13.3 µM
SMILES: O=c1c2ccccc2nc2n1CCc1c-2[nH]c2ccccc12 [Rutaecarpine]
AC50 ([1]; Homo sapiens): 2.34 µM
AC50 [2]: 13.2 µM
AC50 AhR ↑ [6]: 5.53 log10(M)*–1

IC50 ([4]; Homo sapiens): 10.6 µM
SMILES: Oc1ccc(-c2nc(-c3ccncc3)c(-c3ccc(F)cc3)[nH]2)cc1 [SB 202190]

EC50 [1, 8]: 8.41 µM
SMILES: Cc1ccc(O)c(N=Nc2ccccc2)n1 [SIB 1757]

EC50 [1, 8]: 13.3 µM
SMILES: Cc1cccc(/C=C/c2ccccc2)n1 [SIB 1893]

IC50 ([4]; Homo sapiens): 17.8 µM
SMILES: COc1ccc(CCCOC(Cn2ccnc2)c2ccc(OC)cc2)cc1 (centres unmarked) [SKF 96365]

EC50 [1, 8]: 3.35 µM
SMILES: CN(C)c1ccc(C=C2C(=O)Nc3ccccc32)cc1 [SU 4312]

EC50 [2]: 23.7 µM
SMILES: CN(C)S(=O)(=O)c1ccc2c(c1)/C(=C/c1cc3c([nH]1)CCCC3)C(=O)N2 [SU 6656]

EC50 ([1]; Homo sapiens): 1.68 µM
SMILES: COc1ccc(/C=C/C(=O)Nc2ccccc2C(=O)O)cc1OC [Tranilast]

IC50 ([4]; Homo sapiens): 16.8 µM
SMILES: COc1cc2c(cc1OC)-c1c/c(=N\c3c(C)cc(C)cc3C)n(C)c(=O)n1CC2 [Trequinsin hydrochloride]

IC50 ([4]; Homo sapiens): 2.37 µM
SMILES: CC(C)(C)c1cc(/C=C(\C#N)C(N)=S)cc(C(C)(C)C)c1O [Tyrphostin AG 879]

The next lines start with the compound.

SMILES: O=C1Nc2ccccc2/C1=C1/Nc2ccccc2/C1=N\O [Indirubin-3′-oxime]
EC50 [1, 8]: 2.66 µM

SMILES: O=C1Cc2c([nH]c3ccc(Br)cc23)-c2ccccc2N1 [Kenpaullone]
AC50 ([1]; Homo sapiens): 2.95 µM
EC50 ([1]; Homo sapiens): 2.98 µM
AC50 [2]: 1.32 µM
EC50 [2]: 1.33 µM
cytotoxicity at concentrations of outfitted points of agonist curves [3]: cytotoxicity did not appear to be the direct cause for the outfitted points

SMILES: CC[N+](CC)(CC)CCOc1ccc(/C=C/c2ccccc2)cc1 [MG 624]
AC50 ([4]; Homo sapiens): 10.5 µM
IC50 ([4]; Homo sapiens): 9.44 µM
AC50 ([5]; Homo sapiens): 11.7 µM
IC50 ([5]; Homo sapiens): 12.6 µM

SMILES: CC[C@H](C)C(=O)O[C@H]1CCC=C2C=C[C@H](C)[C@H](CC[C@@H]3C[C@@H](O)CC(=O)O3)[C@H]21 [Mevastatin]
EC50 ([1]; Homo sapiens): 2.98 µM

SMILES: COC(=O)Nc1nc2ccc(C(=O)c3cccs3)cc2[nH]1 [Nocodazole]
EC50 [2]: 1.88 µM

SMILES: CCCCCCCCCCCCCC(=O)O[C@@H]1[C@@H](C)[C@@]2(O)[C@@H](C=C(CO)C[C@]3(O)C(=O)C(C)=C[C@@H]23)[C@@H]2C(C)(C)[C@]12OC(C)=O [Phorbol 12-myristate 13-acetate]
AC50 ([1]; Homo sapiens): 0.00832 µM
EC50 ([1]; Homo sapiens): 0.01 µM
AC50 [2]: 0.00661 µM
EC50 [2]: 0.01 µM
cytotoxicity at concentrations of outfitted points of agonist curves [3]: cytotoxicity was seen at the concentration accompanying the outfitted points

SMILES: CC(=O)[C@H]1CC[C@H]2[C@@H]3CCC4=CC(=O)CC[C@]4(C)[C@H]3CC[C@]12C [Progesterone]
IC50 ([4]; Homo sapiens): 11.9 µM

SMILES: Cc1cccc(-c2[nH]ncc2-c2ccc3ncccc3n2)n1 [RepSox]
AC50 ERR↓ [4]: 5.88 log10(M)*–1
IC50 [4]: 1.33 µM
AC50 PGC/ERR ↓ [5]: 5.93 log10(M)*–1
IC50 [5]: 1.19 µM

SMILES: C=CCNc1ncnc2ccc(Br)cc12 [SMER28]
AC50 ERR↓ [4, 9]: 5.03 log10(M)*–1
AC50 PGC/ERR ↓ [5, 9]: 4.98 log10(M)*–1

SMILES: CC(=O)S[C@@H]1CC2=CC(=O)CC[C@]2(C)[C@H]2CC[C@@]3(C)[C@@H](CC[C@@]34CCC(=O)O4)[C@H]12 [Spironolactone]
AC50 ([4]; Homo sapiens): 16.6 µM
IC50 ([4]; Homo sapiens): 18.8 µM
AC50 ([5]; Homo sapiens): 9.33 µM
IC50 ([5]; Homo sapiens): 9.44 µM

SMILES: CCN1/C(=C/C(C)=O)Sc2ccc(OC)cc21 [TG003]
AC50 ERR↓ [4, 9]: 4.93 log10(M)*–1
AC50 PGC/ERR ↓ [5, 9]: 5.23 log10(M)*–1

SMILES: C/C=C(/C)C(=O)O[C@H]1C(C)=C2[C@H]([C@@H]1OC(=O)CCCCCCC)[C@@](C)(OC(C)=O)C[C@H](OC(=O)CCC)[C@@]1(O)[C@H]2OC(=O)[C@@]1(C)O [Thapsigargin]
IC50 ([4]; Homo sapiens): 0.24 µM
IC50 [7]: 10.6 µM
